Consider 4 molecules from patent publication US6664106B1, “Production of primmorphs from disassociated cells of sponges and corals” (priority 1998, dated 2003).

Holding throughout (format): cell-based, Suberites domuncula
Data set [1] concerns primmorphs from S. domuncula. Briefly: Size (diameter) of primmorphs after addition of nutrients. The following applies: after addition as nutrient.
Data set [2] has as its system primmorphs from S. domuncula. Briefly: DNA synthesis in primmorphs by BrdU labelling. The following applies: for percentage share of BrdU-positive cells (change in words): after addition as nutrient. The method, then: In order to determine the cell proliferation, the integration of BrdU [5-bromo-2′-deoxy-uridine] into the cellular DNA was measured using the “BrdU-iabeling and detection kit”, in accordance with the manufacturer's instructions.
For this purpose, the primmorphs are incubated, usually in 1 ml of the seawater/antibiotic solution, which also contains the BrdU labelling solution [final dilution: usually 1:1,000 (10 μM of BrdU)]. The incubation period is usually 12 hours; the incubation itself is carried out in culture chambers [e.g. the “culture chamber slides (Nunc)”—catalogue number 177453]. Subsequently, the cells are dissociated in CFMSW-E, washed three times in CFMSW-E and fixed/denatured in 70% ethanol [pH 2.0]. After that, the cells are incubated with anti-BrdU mouse monoclonal antibodies and the immune complex is made visible with anti-mouse Ig coupled to alkaline phosphatase and with the dye substrate nitro-blue tetrazolium salt. The cells are analysed under a light-optical microscope.
The primary primmorphs were obtained from individual cells from S. domuncula and used for the experiments after 21 days.
For this reason, the influence of a phorbol ester, phorbol 12-inyristate 13-acetate (PMA), on the percentage of BrdU-positive cells in primmorphs from S. domuncula was determined. The primmorphs were incubated for two days with different concentrations of PMA. After that, the DNA synthesis was determined by means of BrdU labelling as described above. The control, percentage of BrdU-positive cells in primmorphs without the test substance, was set at 100%.
FIG. 5. Influence of the phorbol ester phorbol 12-myristate 13-acetate (PMA) on the percentage share of BrdU-positive cells in primmorphs from S. domuncula. The primmorphs were incubated for two days with different concentrations of PMA. After this, DNA synthesis was determined by means of BrdU labelling. The control, percentage share of BrdU-positive cells among primmorphs without the test substance, was set at 100%. 300 cells were counted per batch.
FIG. 6. Influence of cadmium, concentrations between 0.1 ng/ml and 100 ng/ml were chosen, on the amount of the percentage share of BrdU-positive cells among primmorphs.

The subject of data set [3] is primmorphs from S. domuncula. Description: Proliferation of cells in primmorphs (parallel batches, BrdU-positive binuclear stages). The following applies: 0.01 to 1 μg PMA/ml. As to the method: In order to determine whether the cells do in fact divide after the DNA synthesis, the same batches were analysed which were also used to detect the incorporation of BrdU into cells from the primmorphs of S. domuncula. Those cells which were positive for BrdU and which were still in the binuclear stage after undergoing mitosis were counted.
In line with the above comments, it was also examined in parallel batches whether any change in proliferation occurred after incubation with the agent used here.

As for phosphatidylinositol, the “size of the primmorphs (change in words)” value in data set [1] is given as “increase”. Further, in data set [2], the “percentage share of BrdU-positive cells (change in words)” value was “rise”. Consider `[Cd]` [cadmium], for which, in data set [2] (cadmium at a concentration of 1 ng/ml and more, single exposure), the “percentage of BrdU-positive cells in primmorphs” value is listed as “decline”. Take `CCCCCCCCCCCCCC(=O)O[C@@H]1[C@@H](C)[C@@]2(O)[C@@H](C=C(CO)C[C@]3(O)C(=O)C(C)=C[C@@H]23)[C@@H]2C(C)(C)[C@]12OC(C)=O` [PMA, phorbol 12-myristate 13-acetate]: the “proliferation of cells in primmorphs” value in data set [3] is reported as “increase”. Also, the “percentage of BrdU-positive cells in primmorphs” value in data set [2] (0.01 to 1 μg PMA/ml, incubated for two days, control without test substance set at 100%) is “distinct percentage increase”. Regarding phosphatidyl serine, the “size of the primmorphs (change in words)” value in data set [1] is reported as “increase”. Besides, the “percentage share of BrdU-positive cells (change in words)” value in data set [2] is listed as “rise”.
